The assay concerns Plasmodium falciparum. Briefly: GSK_TCMDC: Inhibition of Plasmodium falciparum 3D7 in whole erythrocytes, using parasite LDH activity as an index of growth. The following applies: Plasmodium falciparum, 3D7. The class given is functional, organism-based.
For `CCN1CCC(N(Cc2ccc(-c3ccc(C(F)(F)F)cc3)cc2)C(=O)Cn2c(CCc3cccc(F)c3F)cc(=O)c3c2CCCC3)CC1`, the XC50 was determined as 755 nM. For the compound `CC(C)N1CCC(N(Cc2ccc(-c3ccc(C(F)(F)F)cc3)cc2)C(=O)Cn2c(SCc3cccc(F)c3F)cc(=O)c3ccccc32)CC1`, the XC50 turned out to be 817 nM. `CCN1CCC(N(CCCCCCc2ccc(C(F)(F)F)cc2)C(=O)Cn2c(CCc3cccc(F)c3F)cc(=O)c3ccccc32)CC1` yielded an XC50 of 927 nM. For `O=[N+]([O-])c1ccc2nccnc2c1` the value was 1070 nM; for `CCNc1cc(C(=O)N[C@@H](Cc2ccccc2)[C@H](O)CNC2CCCC2)cc(N2CCCC2=O)c1`, 83.4 nM; for `Cc1cc(Nc2ccc3ccccc3c2)n2ncnc2n1`, 173 nM. To `CN1CCC(N2CCN(Cc3cccc(-c4cccc(-c5nc6ccccc6[nH]5)c4)c3)CC2)CC1` belongs 194 nM; to `COc1ccc(CCNc2nc(NCc3ccccc3)c3cc(OC)c(OC)cc3n2)cc1OC`, 326 nM. For `COC(=O)c1cc(C(O)CNC(C)CCCc2ccccc2)ccc1O` (configuration not stated) the value was 742 nM; for `O=C(NCCCCN1CC=C(c2ccc3c(c2OCc2ccccc2)CCCC3)CC1)c1ccc(-c2ccc(C(F)(F)F)cc2)cc1`, 296 nM; for `Cn1nccc1C(=O)NCCNCc1ccc(-c2ccc(-c3nc4cc(C(F)(F)F)ccc4[nH]3)cc2)cc1`, 145 nM. As to `CC[C@H]1CN2CC[C@@H]1C[C@H]2[C@H](O)c1cc(-c2cc(Cl)cc(Cl)c2)nc2ccc(OC)cc12`, the XC50 was found to be 235 nM. Turning to `COc1c(CCNCCCCNCCc2cc(Cl)c3ccccc3c2OC)cc(Cl)c2ccccc12`, the XC50 came to 168 nM. Take `COc1cc(Cc2cnc(N)nc2N)ccc1Oc1ccc(N)cc1`: the XC50 is 868 nM.

Compound `CCNc1cc(-c2cccc(OC)c2)nc(Nc2ccc(F)cc2)n1` gave an XC50 of 1270 nM. `Cc1cc(NCc2ccc(F)cc2)nc2cc(O)ccc12` displayed an XC50 of 762 nM.

For `FC(F)(F)c1ccc2[nH]ccc(=NN=CC=Cc3ccccc3)c2c1`, the XC50 was 1020 nM.

In turn, `O=[N+]([O-])c1ccc(Oc2c(Cl)cc(S(=O)(=O)NC3CCC(CN4CCC(c5c[nH]c6ccccc56)CC4)CC3)cc2Cl)c(Cl)c1` (configuration not stated) registered an XC50 of 758 nM. To `Cc1cc(C=C(P(=O)(OC(C)C)OC(C)C)P(=O)(OC(C)C)OC(C)C)c2ccccc2c1O` belongs 1080 nM; to `CCNc1cc(C(=O)N[C@@H](Cc2ccccc2)[C@H](O)CNCCC(C)c2ccccc2)cc(N2CCCC2=O)c1` (some centres not stated), 511 nM; to `O=c1cc(NCCC(CNCCc2ccccc2)NCc2cc(Br)cc(Br)c2)[nH]c2ccccc12` (configuration not stated), 514 nM.

In turn, `Fc1ccccc1C=NN=c1cc[nH]c2ccc(C(F)(F)F)cc12` returned an XC50 of 871 nM. Regarding `Cc1cc(-c2cccc(CNC3CCN(C)CC3)c2)ccc1S(=O)(=O)NCCN1CCCC1`, the XC50 was 977 nM. For `N=c1n(Cc2ccccc2)c2ccccc2n1CC(O)c1ccc(Cl)c(Cl)c1` (configuration not stated) the value was 828 nM. To `Cc1ccc2sc(N3CCN(C(=O)c4ccc([N+](=O)[O-])o4)CC3)nc2c1C` belongs 945 nM. In turn, `C=CCN1C(=O)CN(S(=O)(=O)c2ccc(-n3nc(C)cc3C)cc2)C1=S` showed an XC50 of 941 nM. For `Fc1ccc2[nH]c(-c3ccc(-c4ccc(CNCC5CCCO5)cc4)s3)nc2c1` (configuration not stated) the value was 599 nM.

Turning to `CCn1c(-c2nonc2N)nc2cnc(Oc3cccc(NC(=O)c4ccc(OCCN(C(C)C)C(C)C)cc4)c3)cc21`, the XC50 amounted to 780 nM.

With `CCCc1cc(OC)c(C[C@@H]2c3cc(O)c(Cl)cc3CCN2C)cc1OC`, the XC50 was determined as 722 nM. `O=C(COc1ccc(C(=O)c2ccccc2)cc1)Nc1nccs1`: the XC50 turned out to be 887 nM. To `CN(Cc1ccccc1)C(=O)CCNS(=O)(=O)c1cc(Br)cnc1N` belongs 1130 nM. For `COc1ccc2cc(-c3nc(-c4c(Cl)cccc4Cl)[nH]c3-c3ccnc(NCCCN4CCCCC4C)c3)ccc2c1` (configuration not stated) the value was 948 nM; for `COc1ccc(Nc2ncc3c(-c4cccc(NC(=O)Cc5ccc(F)cc5)c4)c[nH]c3n2)cc1OC`, 594 nM; for `CCOc1c(CNCCCNc2nc3ccccc3[nH]2)cc(Br)cc1OC`, 557 nM. To `CN(C)c1ccc(CN2CCCCC(NC(=O)c3cc(-c4ccccc4Cl)cs3)C2)cc1` (configuration not stated) belongs 1060 nM. With `COc1cccc2[nH]c(NCCCNCc3cc(Br)cc(Br)c3)nc12`, the XC50 worked out at 950 nM. To `CC(CN(C)C)C(=O)Nc1ccc(-c2cccc(-c3nc4ccccc4[nH]3)c2)cc1` (configuration not stated) belongs 722 nM; to `COc1ccc(CNc2ccnc3cc(OC)ccc23)cc1`, 766 nM; to `O=C(CN1CCC2(CCC1=O)CC(=O)c1ccccc1O2)NCCN1CCOCC1` (configuration not stated), 221 nM. For `NC1=NC2(CCCC2)N(c2ccc(Cl)cc2)C(N)=N1` the value was 414 nM; for `N=C(N)Nc1ccc(CCc2ccc(NC(=N)N)cc2)cc1`, 289 nM; for `CCCNC(=O)Nc1ccc(N(C)c2ccnc(NC3CC3)n2)cc1`, 618 nM.

`CC(C)Cn1cc2c(ccc3nc(N)nc(N)c32)n1` came in with an XC50 of 303 nM. The compound `Cc1cc(Cc2ccc(S(=O)(=O)c3cc4c(cc3O)CCN(C)CC4)cc2)ccc1Cl` yielded an XC50 of 911 nM. Take `CC(=O)Nc1nc(C(=O)Nc2cccc(-c3ccc(-c4nc5cccc(C)c5[nH]4)cc3)c2)cs1`: the XC50 was 232 nM. To `CCN(CC)CCNc1nc(C=Cc2ccc(Cl)cc2)nc2cc3ccccc3cc12` belongs 147 nM; to `O=C(O)CCc1ccc(-c2c[nH]c3ncc(-c4ccc5ncccc5c4)cc23)cc1`, 302 nM; to `COc1ccc(CNC2CCN(C)CC2)cc1-c1ccc(S(=O)(=O)NCc2ccccc2)c(C)c1`, 992 nM.

As to `COc1cc(-n2cnc3cc(-c4ccc(Cl)cc4)sc3c2=O)ccc1OCCN1CCC(c2cccc(NC(C)=O)c2)CC1`, the XC50 was determined as 553 nM. To `O=C(NCCN1CCOCC1)c1ccc(O)c(-c2cccc(C(F)(F)F)c2)c1` belongs 752 nM; to `CCCOc1ccc(N2C(N)=NC(N)=NC2(C)C)cc1`, 487 nM. For `Cn1ccnc1S(=O)(=O)CCNCc1ccc(-c2ccc3ncnc(Nc4ccc(OCc5cccc(F)c5)c(Cl)c4)c3c2)o1` the value was 701 nM; for `Cc1ccc(-c2nc(Nc3ccncc3)c3ccccc3n2)s1`, 830 nM; for `N=C(NCCCCCCCCNC(=N)Nc1ccc(Cl)cc1)Nc1ccc(Cl)cc1`, 590 nM.

In turn, `O=C(Cn1c(=O)oc2ccccc21)N1CCC(n2c(=O)n(CCCN3CCOCC3)c3ccccc32)CC1` registered an XC50 of 774 nM.

The compound `N#Cc1ccc2c(c1)CCN(CCC1CCC(NC(=O)/C=C/c3ccc4[nH]ccc4c3)CC1)CC2` (configuration not stated) returned an XC50 of 1060 nM. In turn, `COc1ccc2c(=NN=C(C)c3ccccn3)cc(C)[nH]c2c1` showed an XC50 of 722 nM.

In turn, `Cc1cc(-c2ccc3c(c2)CCN(CCC2CCC(NC(=O)/C=C/c4ccccc4F)CC2)CC3)on1` (configuration not stated) came in with an XC50 of 811 nM. To `COc1cccc(Nc2nccc(NCC(O)c3ccc(C(F)(F)F)cc3)n2)c1` (configuration not stated) belongs 659 nM. For `CCN(CC)CC(O)CNc1c2ccc([N+](=O)[O-])cc2nc2cc(OC)c(OC)cc12` (configuration not stated) the value was 266 nM; for `COc1ccc(S(=O)(=O)NCCC2CCN(CCCCCNC(=O)C=Cc3ccc(Cl)c(Cl)c3)CC2)cc1`, 957 nM. To `CN1CCN(c2cc(NC(=O)Nc3ccc(-c4ccncc4)c(Cl)c3)ccc2Br)CC1` belongs 899 nM.

As to `CC(C)(C)C1CC(=O)CC2C(=O)N(c3ccc(Br)cc3)C(=O)C21` (configuration not stated), the XC50 came out at 934 nM.

The compound `c1cc(-c2ccc(CNCc3ccc(-c4csnn4)cc3)cc2)cc(-c2nc3ccccc3[nH]2)c1` registered an XC50 of 158 nM.

As for `Fc1cccc(-c2ccc3c(c2)CC(NCc2c[nH]c4cnccc24)C3)c1` (configuration not stated), the XC50 came to 480 nM. For `O=C(c1ccc(OCCn2ccnc2)cc1)N1CCC(c2ccc(Br)cc2)C1` (configuration not stated) the value was 116 nM. `CS(=O)(=O)c1ccc(-c2cnc(N)c(-c3cccc(CO)c3)c2)cc1` had an XC50 of 939 nM. To `c1ccc(CCNc2ccnc(Nc3ccc4cn[nH]c4c3)n2)cc1` belongs 467 nM; to `CC1CN(c2cnn(Cc3cccc(NC(=O)Nc4cccc(C(F)(F)F)c4)c3)c(=O)c2Cl)CC(C)N1` (configuration not stated), 818 nM. To `O=C(/C=C/c1ccc(Cl)cc1Cl)N1CCC(CCN2CCC(c3c[nH]c4ccccc34)CC2)CC1` belongs 796 nM. For `CC(=O)N1c2ccccc2C(C)=CC1(C)C` the value was 938 nM; for `CCc1cccc(C)c1-n1nc(-c2cc(C(C)(C)C)oc2C)cc1N`, 658 nM. As to `c1ccc2c(NCCCCCCCNc3ccnc4ccccc34)ccnc2c1`, the XC50 amounted to 169 nM. For the compound `CCOc1cc(C)ccc1C1CCN(CCCCNC(=O)c2ccc(-c3ccc(C(F)(F)F)cn3)cc2)CC1`, the XC50 came out at 787 nM. `O=C(CSc1nc2ccc([N+](=O)[O-])cc2s1)Nc1ccccc1-c1ccccc1`: the XC50 was 1170 nM. To `Cc1cc(NC2CCN(CC3CCCCC3)C2)nc(Nc2ccc(Cl)cc2)n1` (configuration not stated) belongs 404 nM; to `O=C(Nc1cccc(-c2nc3ccccc3[nH]2)c1)c1ccc(-c2cccc([N+](=O)[O-])c2)o1`, 151 nM; to `CCc1c(C)nc2nc(Cc3cccc(F)c3)nn2c1N1CCN(c2ccccn2)CC1`, 750 nM.

`O=C(Nc1ccc(-c2cccc(-c3nc4cc(C(F)(F)F)ccc4[nH]3)c2)cc1)c1cccnc1`: the XC50 is 725 nM. For `Cc1nc(NCc2ccccc2)cc(NCC(O)c2ccc(O)cc2)n1` (configuration not stated) the value was 1230 nM. To `NS(=O)(=O)c1ccc(Nc2nccc(-c3c(-c4cccc(NC(=O)c5c(F)cccc5F)c4)nn4ccccc34)n2)cc1` belongs 762 nM; to `CC(C)(C)c1ccc(CN2CCCCC(NC(=O)c3cc(-c4cccc(F)c4)cs3)C2)cc1` (configuration not stated), 783 nM. For `CC(C)C[C@H](NC(=O)c1cccc(F)c1)C(=O)N[C@H](/C=N/NC(=O)c1ccccc1)CCc1ccccc1` the value was 715 nM.

In the case of `Cc1cc(C(=O)Nc2ccc3c(c2)CCN3C2CCN(Cc3ccc(F)cc3Cl)C2)no1` (configuration not stated), the XC50 was determined as 189 nM.

As for `CN1CCCc2ccc(NC(=O)c3ccc(-c4cc(C(F)(F)F)nn4C)s3)cc2C1`, the XC50 was 880 nM. For `CN(C)CCCOc1ccc(CCCCc2ccc(Cl)cc2C(=O)c2ccccc2)cc1` the value was 1030 nM.

Compound `c1cncc(CCNCc2ccc(-c3cccc(-c4nc5ccccc5[nH]4)c3)cc2)c1` gave an XC50 of 164 nM.

Source of the values: ChEMBL document CHEMBL1157539, “Thousands of chemical starting points for antimalarial lead identification” (Nature, 2010).
